Columns and labels:
Assay type in all cases: physicochemical
[1] = Measurement of solubility in propylene carbonate; details: for solubility: organic solvent or mixture
Description: [Measurement of Solubility in Propylene Carbonate]
Note that propylene carbonate is a solvent contained in the electrochromic layer constituting the EC device. Further, Ref-1 is a compound in which methyl groups having no ethylene oxide chains are substituted at the 3-position and the 4-position of the thiophene ring, and substituents (substituents corresponding to A1 and A2 in general formula [1]) at the ortho positions of the phenyl group bonded to the thiophene ring are hydrogen atoms (no substitution).

[2] = Absorption spectrum in the neutral (bleached) state, UV-visible spectrophotometer; details: in chloroform
Experimental: The illustrated compound A-1 obtained was dissolved in chloroform, and the resulting solution was measured using an ultraviolet and visible spectrophotometer (V-560 manufactured by JASCO Corporation). As a result, an absorption spectrum illustrated in FIG. 6 was obtained.
Solutions prepared by dissolving compounds synthesized in Examples in chloroform were measured for the absorption spectra in the neutral state (bleached state) using an ultraviolet and visible spectrophotometer (V-560 manufactured by JASCO Corporation).

[3] = Durable stability against oxidation-reduction cycle (square-wave potential program, CV oxidation peak current); details: for Durability evaluation: change in oxidation peak current (CV) before and after 10000 oxidation-reduction cycles, 1.0×10^−4 mol/L in 0.1 mol/L tetrabutylammonium perchlorate in dichloroethane
Experimental: The durable stability against the oxidation-reduction cycle of the organic EC compound according to the present invention was evaluated. Specifically, the durability against repetition of an oxidation-reduction was evaluated using the illustrated compound A-1, the illustrated compound A-3 and Ref-1 as evaluation targets.
The measurement of durability against repetition of an oxidation-reduction was performed using a solution prepared by dissolving each compound in a predetermined solvent as a target sample, using a measuring apparatus provided with a work electrode, a counter electrode and a reference electrode. Here, the electrodes provided in the measuring apparatus and the solvent used will be shown below.
Work electrode: Glassy carbon
(§1) Counter electrode: Platinum
(§2) Reference electrode: Silver
Supporting electrolyte (solvent): Solution of tetrabutylammonium perchlorate in dichloroethane (0.1 mol/L)
Solution concentration: 1.0×10^−4 mol/L
The above solution was subjected to a square-wave potential program including oxidation at a constant potential and reduction at a constant potential for 10000 times. Here, the oxidation at a constant potential is a process of applying a potential equal to or higher than the oxidation potential of a target compound to the above solution for 10 seconds, and the reduction at a constant potential is a process of applying a potential of 0 V based on the reference electrode (Ag/Ag^+) to the above solution for 10 seconds.
The durability against repetition of an oxidation-reduction was evaluated based on the change in the amount of oxidation peak current in cyclic voltammetry (CV) measurement before and after the oxidation-reduction cycles for 10000 times. Specifically, when the rate of change in the amount of oxidation peak current was less than 20%, the durability was evaluated as Good, and when the rate of change was 20% or more, the durability was evaluated as Poor.

[4] = Absorption spectrum in the oxidized (colored) state, oxidation at constant potential; details: 5.0×10^−4 mol/L in 0.1 mol/L tetrabutylammonium perchlorate in propylene carbonate
Experimental: Next, the absorption spectra in the oxidized (colored) state were measured. Specifically, the absorption spectra were measured using a measuring cell provided with a work electrode, a counter electrode, a reference electrode and a liquid tank. Here, the electrodes provided in the measuring cell and the solute and solvent which are contained in the solution charged to the liquid tank will be shown below.
as §1, §2
Solute: Evaluation target compounds (illustrated compounds A-1 and A-3)
Solvent (supporting electrolyte): Solution of tetrabutylammonium perchlorate in propylene carbonate (0.1 mol/L)
(Note that the concentration of the solution charged to the liquid tank is 5.0×10^−4 mol/L.)
A compound was subjected to oxidation at a constant potential by applying a potential equal to or higher than the oxidation potential of the compound using the measuring cell to thereby measure the change in the absorption spectra and transmittance spectra. Here, the absorption peak wavelength in the colored state (oxidized state) and the absorption peak wavelength in the bleached state (neutral state) are shown in the following Table 3.

| Neutral absorption λmax ([2]; neutral (bleached) state) | Oxidized absorption λmax′ [4] | Compound | solubility [1] | absorption in the visible light region (neutral state) [2] | Durability evaluation [3] | appearance of solution when a concentration of 6 mM was going to be prepared ([1]; 6 mM) | number of oxidation-reduction cycles after which the amount of oxidation peak current was decreased by 20% ([3]; square-wave potential program, 10 s oxidation / 10 s reduction) |
| --- | --- | --- | --- | --- | --- | --- | --- |
| 282.0 nm | 415.8 nm | COCCOCc1c(-c2c(OC)cccc2OC(C)C)sc(-c2c(OC)cccc2OC(C)C)c1COCCOC [A-1] | ≥ 150 mM | does not have absorption over the whole visible light region | Good (when the rate of change in the amount of oxidation peak current was less than 20%, the durability was evaluated as Good) | – | – |
| – | – | Cc1c(-c2ccccc2)sc(-c2ccccc2)c1C [Ref-1] | < 6 mM | – | Poor (when the rate of change was 20% or more, the durability was evaluated as Poor) | turbid | about 2400 times |

— patent US9145382B2, “Organic compound and electrochromic device using the same” (CANON KABUSHIKI KAISHA, priority 2014, dated 2015)
